Data from BindingDB's records for doi:10.1021/jm9800245 (F. Hoffmann-La Roche, 1998).
Where a name gives a salt, the structure may show the parent alone.

What was measured:
[1] = Inhibition of beta-lactamase of Escherichia coli TEM-3 […]
[2] = target: Beta-lactamase AmpC (Pseudomonas aeruginosa); assay: Inhibition of beta-lactamase of Pseudomonas aeruginosa 18 SH (class C)

SMILES	IC50 [1] [µM]	IC50 [2] [µM]
NC(=O)c1ccc(NC(=O)N2CC[C@@H]3C2C(=O)N3S(=O)(=O)O)cc1 (stereo partly drawn) [(2S,5R)-2-(4-Carbamoyl-phenylcarbamoyl)-7-oxo-2,6-diaza-bicyclo[3.2.0]heptane-6-sulfonic acid]	9000	0.217
CC(C)(C)OC(=O)N1CC[C@@H]2C1C(=O)N2S(=O)(=O)O (stereo partly drawn) [(2S,5R)-7-Oxo-6-sulfo-2,6-diaza-bicyclo[3.2.0]heptane-2-carboxylic acid tert-butyl ester]	> 1000	1.5
NC(=O)c1ccc(NC(=O)N2CCC3C2C(=O)N3OS(=O)(=O)O)cc1 (configuration not stated) [sodium salt-Sulfuric acid mono-[2-(4-carbamoyl-phenylcarbamoyl)-7-oxo-2,6-diaza-bicyclo[3.2.0]hept-6-yl] ester]	–	0.026
CC(C)(C)OC(=O)N1CCC2C1C(=O)N2OS(=O)(=O)O (configuration not stated) [sodium salt-tert-butyl 7-oxo-6-(sulfooxy)-2,6-diazabicyclo[3.2.0]heptane-2-carboxylate]	0.165	0.028
